EC50 data for twelve molecules are collected here from patent publication US11472788B2, “Benzoimidazoles as selective inhibitors of indoleamine 2,3-dioxygenases” (BEIGENE, LTD., priority 2017, dated 2022).

Sequence of cellular IDO1 in HeLa cells (P14902 whole entry): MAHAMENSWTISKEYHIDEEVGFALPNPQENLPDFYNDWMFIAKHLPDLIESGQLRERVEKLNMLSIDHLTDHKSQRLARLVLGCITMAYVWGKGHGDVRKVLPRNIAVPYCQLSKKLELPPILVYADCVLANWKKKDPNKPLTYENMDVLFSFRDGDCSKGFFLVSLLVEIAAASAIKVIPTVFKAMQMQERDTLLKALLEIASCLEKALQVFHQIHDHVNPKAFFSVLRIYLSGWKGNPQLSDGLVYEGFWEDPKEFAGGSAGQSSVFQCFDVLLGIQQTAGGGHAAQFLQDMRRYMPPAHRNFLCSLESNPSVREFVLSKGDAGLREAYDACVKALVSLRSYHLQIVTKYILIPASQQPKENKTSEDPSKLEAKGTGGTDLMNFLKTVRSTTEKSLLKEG

The experiment addresses cellular IDO1 in HeLa cells (Homo sapiens (Human), UniProt P14902). Put plainly: HeLa Cell-Based IDO1 Kyn (Kynurenine) Production Assay. The settings on record: IFN-γ induced IDO1, 48 hours incubation, Kyn absorbance at 480 nm. In a few lines:
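Compounds added to HeLa cells together with IFN-γ (100 ng/mL final) and 0.4 mM L-Trp, 48 h at 37 °C. Kynurenine in TCA-deproteinized supernatant measured colorimetrically with 4-(dimethylamino)benzaldehyde at 480 nm; IC50 from four-parameter logistic fit.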
`COC1CCC(NC(=O)c2ccc3[nH]c(C(C)[C@H]4CC[C@@H](c5ccnc6ccc(F)cc65)CC4)nc3c2)CC1` (stereo partly drawn) [Example B185, 2-(1-((1s,4s)-4-(6-fluoroquinolin-4-yl)cyclohexyl)ethyl)-N-(4-methoxycyclohexyl)-1H-benzo[d]imidazole-5-carboxamide] had an EC50 of 122 nM. Consider `COC1CCC(NC(=O)c2ccc3[nH]c(C(C)[C@H]4CC[C@H](c5ccnc6ccc(F)cc65)CC4)nc3c2)CC1` (stereo partly drawn) [Example B186, 2-(1-((1r,4r)-4-(6-fluoroquinolin-4-yl)cyclohexyl)ethyl)-N-(4-methoxycyclohexyl)-1H-benzo[d]imidazole-5-carboxamide], for which the response was half-maximal at 193 nM (EC50). `C[C@@H](c1nc2cc(F)c(F)c(Cl)c2[nH]1)[C@H]1CC[C@@H](c2ccnc3ccc(F)cc32)CC1` [Example B189, 4-((1R,4s)-4-((S)-1-(7-chloro-5,6-difluoro-1H-benzo[d]imidazol-2-yl)ethyl)cyclohexyl)-6-fluoroquinoline] came in with an EC50 of 45.9 nM. As to `C[C@@H](c1nc2cc(F)c(F)c(Cl)c2[nH]1)[C@H]1CC[C@H](c2ccnc3ccc(F)cc32)CC1` [Example B190, 4-((1R,4r)-4-((R)-1-(7-chloro-5,6-difluoro-1H-benzo[d]imidazol-2-yl)ethyl)cyclohexyl)-6-fluoroquinoline], the EC50 is 5.74 nM. In turn, `CON(C)C(=O)c1ccc2nc([C@H](C)[C@H]3CC[C@@H](c4ccnc5ccc(F)cc54)CC3)[nH]c2c1` [Example B196] registered an EC50 of 26.5 nM. Consider `C[C@@H](c1nc2ccc(C3=NCCO3)cc2[nH]1)[C@H]1CC[C@@H](c2ccnc3ccc(F)cc32)CC1` [Example B197, 2-(2-((R)-1-((1s,4S)-4-(6-fluoroquinolin-4-yl)cyclohexyl)ethyl)-1H-benzo[d]imidazol-6-yl)-4,5-dihydrooxazole], for which the response was half-maximal at 8.1 nM (EC50). `COC(=O)c1c(F)ccc2[nH]c([C@@H](C)[C@H]3CC[C@@H](c4ccnc5ccc(F)cc54)CC3)nc12` [Example B198, methyl 5-fluoro-2-((S)-1-((1s,4R)-4-(6-fluoroquinolin-4-yl)cyclohexyl)ethyl)-1H-benzo[d]imidazole-4-carboxylate] registered an EC50 of 984 nM. In turn, `COC(=O)c1c(F)ccc2[nH]c([C@H](C)[C@H]3CC[C@@H](c4ccnc5ccc(F)cc54)CC3)nc12` [Example B199, methyl 5-fluoro-2-((R)-1-((1s,4S)-4-(6-fluoroquinolin-4-yl)cyclohexyl)ethyl)-1H-benzo[d]imidazole-4-carboxylate] registered an EC50 of 21.9 nM.

In the case of `CCOC(=O)c1cc2nc([C@@H](C)C3CCC(c4ccnc5ccc(F)cc45)CC3)[nH]c2cc1C` (stereo partly drawn) [Example B200, ethyl 2-((S)-1-((1s,4S)-4-(6-fluoroquinolin-4-yl)cyclohexyl)ethyl)-6-methyl-1H-benzo[d]imidazole-5-carboxylate], the concentration for a half-maximal effect (EC50) came to 73.3 nM. In the case of `CCOC(=O)c1cc2nc([C@H](C)[C@H]3CC[C@@H](c4ccnc5ccc(F)cc54)CC3)[nH]c2cc1C` [Example B201, ethyl 2-((R)-1-((1s,4S)-4-(6-fluoroquinolin-4-yl)cyclohexyl)ethyl)-6-methyl-1H-benzo[d]imidazole-5-carboxylate], the EC50 was 1.6 nM. Turning to `CC(=O)c1ccc2nc([C@H](C)[C@H]3CC[C@@H](c4ccnc5ccc(F)cc54)CC3)[nH]c2c1` [Example B202, 1-(2-((R)-1-((1s,4S)-4-(6-fluoroquinolin-4-yl)cyclohexyl)ethyl)-1H-benzo[d]imidazol-6-yl)ethan-1-one], the EC50 stood at 2.9 nM. `CC(c1nc2cc(F)c(F)c(Cl)c2[nH]1)[C@H]1CC[C@@H](c2ccnc3ccc(F)cc32)CC1` (stereo partly drawn) [Example B203, 4-((1s,4s)-4-(1-(7-chloro-5,6-difluoro-1H-benzo[d]imidazol-2-yl)ethyl)cyclohexyl)-6-fluoroquinoline] yielded an EC50 of 8.8 nM.
